# Assay results: patent publication US12157741B2, “Macrocyclic inhibitors of DYRK1A” (DANA-FARBER CANCER INSTITUTE, INC., priority 2018, dated 2024)
# Where two headings read alike, the source gives them in different places.
# What was measured:
# various enzymes [1] = target: various enzymes (Homo sapiens, UniProt Q00526); conditions: CDK3; 1 uM
# Experimental: (§2) Ambit profiling from Eurofins (formerly Discoverx) was conducted in accordance with the manufacturer's instructions.
# various enzymes [2] = target: T1, various enzymes (Homo sapiens, UniProt O14733); conditions: MKK7; 1 uM
# T1 sequence (O14733 1-419): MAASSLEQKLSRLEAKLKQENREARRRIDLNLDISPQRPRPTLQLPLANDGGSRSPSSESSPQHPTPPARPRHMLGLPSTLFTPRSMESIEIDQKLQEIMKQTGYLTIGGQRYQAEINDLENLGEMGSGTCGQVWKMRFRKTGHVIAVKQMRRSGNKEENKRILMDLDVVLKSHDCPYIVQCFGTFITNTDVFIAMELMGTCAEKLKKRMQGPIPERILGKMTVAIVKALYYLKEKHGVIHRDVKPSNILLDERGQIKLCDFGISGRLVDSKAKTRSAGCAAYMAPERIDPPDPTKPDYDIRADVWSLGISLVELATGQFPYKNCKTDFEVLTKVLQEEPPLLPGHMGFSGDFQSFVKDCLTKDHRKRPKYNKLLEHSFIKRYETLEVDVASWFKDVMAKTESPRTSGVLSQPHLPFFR
# Experimental: as §2
# various enzymes [3] = target: various enzymes (Homo sapiens, UniProt P00533, DEL747-749/A750P); format: binding; set-up: other: EGFR(L747-E749del, A750); 1 uM; other: EGFR(L747-E749del, A750P); other: compound 1 uM
# Experimental: (§1) Ambit profiling was conducted in accordance with the manufacturer's instructions.
# various enzymes [4] = target: various enzymes (Homo sapiens, UniProt P50750); format: binding; conditions: compound 1 uM
# Experimental: as §1
# various enzymes [5] = target: various enzymes (Homo sapiens, UniProt P21709); format: binding; conditions: compound 1 uM
# Experimental: as §1
# various enzymes [6] = target: various enzymes (Homo sapiens, UniProt P49674); format: binding; conditions: compound 1 uM
# Experimental: as §1
# various enzymes [7] = target: various enzymes (Homo sapiens, UniProt Q12866); format: binding; conditions: compound 1 uM
# Experimental: as §1
# various enzymes [8] = target: various enzymes (Homo sapiens, UniProt O15075); format: binding; conditions: compound 1 uM
# Experimental: as §1
# various enzymes [9] = target: various enzymes (Homo sapiens, UniProt Q05397); format: binding; conditions: compound 1 uM
# Experimental: as §1
# various enzymes [10] = target: various enzymes (Homo sapiens, UniProt O15264); format: binding; conditions: compound 1 uM
# Experimental: as §1
# various enzymes [11] = target: various enzymes (Homo sapiens, UniProt P0C264); format: binding; conditions: compound 1 uM
# Experimental: as §1
# various enzymes [12] = target: various enzymes (Homo sapiens, UniProt Q13470); format: binding; conditions: compound 1 uM
# Experimental: as §1
# various enzymes [13] = target: various enzymes (Homo sapiens, UniProt Q8TD08); format: binding; conditions: compound 1 uM
# Experimental: as §1
# various enzymes [14] = target: various enzymes (Homo sapiens, UniProt P00533, DEL746-750); format: binding; conditions: compound 1 uM
# Experimental: as §1
# various enzymes [15] = target: various enzymes (Homo sapiens, UniProt Q96GD4); format: binding; conditions: compound 1 uM
# Experimental: as §1
# various enzymes [16] = target: various enzymes (Homo sapiens, UniProt P53671); format: binding; conditions: compound 1 uM
# Experimental: as §1
# various enzymes [17] = target: various enzymes (Homo sapiens, UniProt P45983); format: binding; conditions: compound 1 uM
# Experimental: as §1
# various enzymes [18] = target: various enzymes (Homo sapiens, UniProt Q12851); format: binding; conditions: compound 1 uM
# Experimental: as §1
# various enzymes [19] = target: various enzymes (Homo sapiens, UniProt P00533); format: binding; conditions: compound 1 uM
# Experimental: as §1
# various enzymes [20] = target: various enzymes (Homo sapiens, UniProt Q9UPZ9); format: binding; conditions: compound 1 uM
# Experimental: as §1
# various enzymes [21] = target: T2, various enzymes (Homo sapiens, UniProt Q13043); format: binding; conditions: compound 1 uM
# T2 sequence (Q13043 1-487): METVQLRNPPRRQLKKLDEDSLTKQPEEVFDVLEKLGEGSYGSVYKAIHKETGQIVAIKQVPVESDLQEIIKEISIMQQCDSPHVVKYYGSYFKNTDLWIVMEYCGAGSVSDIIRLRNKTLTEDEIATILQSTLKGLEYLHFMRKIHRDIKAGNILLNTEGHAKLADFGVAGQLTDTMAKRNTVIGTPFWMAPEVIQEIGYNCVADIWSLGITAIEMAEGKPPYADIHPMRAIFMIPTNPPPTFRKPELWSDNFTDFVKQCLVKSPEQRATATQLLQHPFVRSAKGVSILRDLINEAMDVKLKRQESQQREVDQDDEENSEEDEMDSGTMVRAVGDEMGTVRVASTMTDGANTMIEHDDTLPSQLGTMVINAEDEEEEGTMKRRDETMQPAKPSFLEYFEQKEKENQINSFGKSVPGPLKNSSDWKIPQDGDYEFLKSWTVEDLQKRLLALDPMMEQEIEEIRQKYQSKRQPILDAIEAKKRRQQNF
# Experimental: as §1
# various enzymes [22] = target: various enzymes (Homo sapiens, UniProt Q9BWU1); format: binding; conditions: compound 1 uM
# Experimental: as §1
# various enzymes (Homo sapiens, UniProt Q00526), sequence (Q00526 whole entry): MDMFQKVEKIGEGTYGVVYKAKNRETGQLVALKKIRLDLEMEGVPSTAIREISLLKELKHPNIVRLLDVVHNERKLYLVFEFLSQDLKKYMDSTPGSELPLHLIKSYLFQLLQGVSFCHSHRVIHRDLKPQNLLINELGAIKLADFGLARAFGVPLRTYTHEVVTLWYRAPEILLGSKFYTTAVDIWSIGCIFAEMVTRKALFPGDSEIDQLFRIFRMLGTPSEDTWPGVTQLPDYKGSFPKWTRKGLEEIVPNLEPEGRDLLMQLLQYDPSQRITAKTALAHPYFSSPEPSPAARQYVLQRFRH
# various enzymes (Homo sapiens, UniProt Q9BWU1), sequence (Q9BWU1 whole entry): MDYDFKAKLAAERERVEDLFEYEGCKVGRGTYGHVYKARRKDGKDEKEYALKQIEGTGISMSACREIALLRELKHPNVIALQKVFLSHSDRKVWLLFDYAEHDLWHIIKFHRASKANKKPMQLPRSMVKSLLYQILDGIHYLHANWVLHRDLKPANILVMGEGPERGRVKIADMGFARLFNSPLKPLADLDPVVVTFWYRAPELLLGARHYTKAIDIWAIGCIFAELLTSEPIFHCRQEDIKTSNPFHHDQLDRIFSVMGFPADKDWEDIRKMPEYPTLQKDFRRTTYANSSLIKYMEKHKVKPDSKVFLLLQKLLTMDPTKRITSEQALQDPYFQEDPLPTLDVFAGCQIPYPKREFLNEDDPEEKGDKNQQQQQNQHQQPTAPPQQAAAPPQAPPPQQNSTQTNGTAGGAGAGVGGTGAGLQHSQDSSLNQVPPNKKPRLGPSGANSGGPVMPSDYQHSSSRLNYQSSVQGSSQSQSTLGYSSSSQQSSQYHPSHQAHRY
# various enzymes (Homo sapiens, UniProt P53671), sequence (P53671 whole entry): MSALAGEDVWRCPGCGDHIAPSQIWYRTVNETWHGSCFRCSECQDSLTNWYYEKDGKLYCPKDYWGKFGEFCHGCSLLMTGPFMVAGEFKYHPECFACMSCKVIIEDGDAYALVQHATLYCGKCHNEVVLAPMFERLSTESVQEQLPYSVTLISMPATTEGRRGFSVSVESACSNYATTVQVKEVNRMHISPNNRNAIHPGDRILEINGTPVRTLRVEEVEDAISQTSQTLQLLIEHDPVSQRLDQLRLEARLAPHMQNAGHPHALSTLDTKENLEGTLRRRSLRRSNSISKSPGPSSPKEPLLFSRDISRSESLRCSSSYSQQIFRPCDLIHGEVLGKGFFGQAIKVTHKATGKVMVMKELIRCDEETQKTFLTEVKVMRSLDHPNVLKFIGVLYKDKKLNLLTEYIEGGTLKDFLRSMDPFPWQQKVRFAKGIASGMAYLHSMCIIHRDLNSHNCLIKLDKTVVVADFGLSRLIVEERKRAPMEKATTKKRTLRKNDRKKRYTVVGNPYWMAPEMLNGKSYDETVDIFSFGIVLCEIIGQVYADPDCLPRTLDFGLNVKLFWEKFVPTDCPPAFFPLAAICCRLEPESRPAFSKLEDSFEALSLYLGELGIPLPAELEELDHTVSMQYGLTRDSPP
# various enzymes (Homo sapiens, UniProt Q8TD08), sequence (Q8TD08 whole entry): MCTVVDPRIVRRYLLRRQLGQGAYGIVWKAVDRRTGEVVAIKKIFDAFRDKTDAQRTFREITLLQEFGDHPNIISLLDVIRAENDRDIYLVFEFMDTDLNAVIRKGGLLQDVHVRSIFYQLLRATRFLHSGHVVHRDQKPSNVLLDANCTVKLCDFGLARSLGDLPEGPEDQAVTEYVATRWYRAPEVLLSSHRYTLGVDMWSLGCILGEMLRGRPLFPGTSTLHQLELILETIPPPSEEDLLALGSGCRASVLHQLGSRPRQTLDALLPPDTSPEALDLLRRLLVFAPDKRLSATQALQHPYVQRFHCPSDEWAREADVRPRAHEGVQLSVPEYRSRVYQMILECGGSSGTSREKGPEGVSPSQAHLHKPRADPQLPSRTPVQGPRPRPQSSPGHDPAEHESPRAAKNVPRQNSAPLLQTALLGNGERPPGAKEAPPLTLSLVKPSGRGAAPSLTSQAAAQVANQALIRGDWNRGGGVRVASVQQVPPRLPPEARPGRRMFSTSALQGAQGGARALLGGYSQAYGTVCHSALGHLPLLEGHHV
# various enzymes (Homo sapiens, UniProt O15075), sequence (O15075 whole entry): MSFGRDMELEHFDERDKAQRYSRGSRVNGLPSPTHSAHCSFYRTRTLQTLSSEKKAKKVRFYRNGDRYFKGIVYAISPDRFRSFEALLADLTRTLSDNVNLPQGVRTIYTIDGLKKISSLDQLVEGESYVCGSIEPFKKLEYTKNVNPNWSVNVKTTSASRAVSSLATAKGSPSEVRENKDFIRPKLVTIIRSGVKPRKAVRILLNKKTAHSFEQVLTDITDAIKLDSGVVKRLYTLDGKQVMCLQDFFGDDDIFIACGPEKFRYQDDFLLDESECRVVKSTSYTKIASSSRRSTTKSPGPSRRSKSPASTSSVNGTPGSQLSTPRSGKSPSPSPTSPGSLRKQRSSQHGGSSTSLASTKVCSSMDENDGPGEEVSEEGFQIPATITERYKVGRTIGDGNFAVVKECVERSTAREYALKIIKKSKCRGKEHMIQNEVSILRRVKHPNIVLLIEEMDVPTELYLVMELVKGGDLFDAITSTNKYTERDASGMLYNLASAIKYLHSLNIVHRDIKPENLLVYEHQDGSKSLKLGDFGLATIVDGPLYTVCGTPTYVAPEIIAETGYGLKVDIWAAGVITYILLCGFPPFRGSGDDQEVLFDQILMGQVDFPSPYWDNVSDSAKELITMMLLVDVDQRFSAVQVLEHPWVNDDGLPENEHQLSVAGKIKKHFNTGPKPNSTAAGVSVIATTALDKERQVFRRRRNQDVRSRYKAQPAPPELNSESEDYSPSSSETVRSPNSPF
# various enzymes (Homo sapiens, UniProt Q96GD4), sequence (Q96GD4 whole entry): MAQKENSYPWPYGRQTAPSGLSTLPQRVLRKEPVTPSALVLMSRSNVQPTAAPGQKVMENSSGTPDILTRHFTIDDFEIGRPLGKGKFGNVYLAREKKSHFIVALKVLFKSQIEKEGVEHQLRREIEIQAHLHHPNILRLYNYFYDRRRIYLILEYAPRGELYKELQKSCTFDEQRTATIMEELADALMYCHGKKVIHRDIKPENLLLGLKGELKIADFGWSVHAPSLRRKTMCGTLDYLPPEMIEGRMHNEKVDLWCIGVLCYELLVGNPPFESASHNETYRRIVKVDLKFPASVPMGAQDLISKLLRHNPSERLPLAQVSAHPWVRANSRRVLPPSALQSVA
# various enzymes (Homo sapiens, UniProt Q13470), sequence (Q13470 whole entry): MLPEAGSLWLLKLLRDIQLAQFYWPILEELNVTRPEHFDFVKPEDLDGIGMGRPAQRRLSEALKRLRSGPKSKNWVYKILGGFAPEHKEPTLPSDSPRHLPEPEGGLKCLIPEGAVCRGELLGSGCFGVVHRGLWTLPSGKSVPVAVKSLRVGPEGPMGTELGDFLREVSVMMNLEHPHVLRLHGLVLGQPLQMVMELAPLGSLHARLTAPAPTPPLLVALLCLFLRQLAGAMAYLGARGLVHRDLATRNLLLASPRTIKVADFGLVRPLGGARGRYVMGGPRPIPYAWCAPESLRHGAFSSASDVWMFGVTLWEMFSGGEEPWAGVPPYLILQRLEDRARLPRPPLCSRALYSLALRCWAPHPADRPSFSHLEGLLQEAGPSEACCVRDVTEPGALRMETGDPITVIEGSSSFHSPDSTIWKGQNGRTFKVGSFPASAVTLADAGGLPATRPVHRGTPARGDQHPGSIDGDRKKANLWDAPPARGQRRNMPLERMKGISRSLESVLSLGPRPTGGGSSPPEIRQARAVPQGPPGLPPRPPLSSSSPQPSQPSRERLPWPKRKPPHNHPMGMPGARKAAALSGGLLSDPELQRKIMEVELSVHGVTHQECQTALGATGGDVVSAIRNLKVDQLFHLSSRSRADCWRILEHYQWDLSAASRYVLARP
# various enzymes (Homo sapiens, UniProt O15264), sequence (O15264 whole entry): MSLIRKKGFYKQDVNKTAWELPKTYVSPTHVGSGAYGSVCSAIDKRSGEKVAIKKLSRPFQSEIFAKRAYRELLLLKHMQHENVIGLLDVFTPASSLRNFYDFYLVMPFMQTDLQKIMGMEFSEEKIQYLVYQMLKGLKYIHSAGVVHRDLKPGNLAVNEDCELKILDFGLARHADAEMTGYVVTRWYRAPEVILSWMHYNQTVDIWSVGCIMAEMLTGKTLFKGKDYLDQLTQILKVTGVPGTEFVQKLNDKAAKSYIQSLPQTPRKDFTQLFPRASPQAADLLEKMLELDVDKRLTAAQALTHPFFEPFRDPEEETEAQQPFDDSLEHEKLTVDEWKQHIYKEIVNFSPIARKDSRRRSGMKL
# various enzymes (Homo sapiens, UniProt P49674), sequence (P49674 whole entry): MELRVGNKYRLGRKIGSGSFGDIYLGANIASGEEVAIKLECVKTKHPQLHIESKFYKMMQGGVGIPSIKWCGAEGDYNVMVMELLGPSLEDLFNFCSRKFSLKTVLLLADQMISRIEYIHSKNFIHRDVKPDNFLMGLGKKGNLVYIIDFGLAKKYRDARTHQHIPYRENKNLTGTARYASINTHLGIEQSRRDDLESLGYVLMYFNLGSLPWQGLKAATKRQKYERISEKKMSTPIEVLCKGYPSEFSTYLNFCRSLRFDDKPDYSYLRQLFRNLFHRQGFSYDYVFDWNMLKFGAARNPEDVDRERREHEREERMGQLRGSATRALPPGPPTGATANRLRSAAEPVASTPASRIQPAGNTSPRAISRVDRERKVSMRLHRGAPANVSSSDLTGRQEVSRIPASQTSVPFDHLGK
# various enzymes (Homo sapiens, UniProt P45983), sequence (P45983 whole entry): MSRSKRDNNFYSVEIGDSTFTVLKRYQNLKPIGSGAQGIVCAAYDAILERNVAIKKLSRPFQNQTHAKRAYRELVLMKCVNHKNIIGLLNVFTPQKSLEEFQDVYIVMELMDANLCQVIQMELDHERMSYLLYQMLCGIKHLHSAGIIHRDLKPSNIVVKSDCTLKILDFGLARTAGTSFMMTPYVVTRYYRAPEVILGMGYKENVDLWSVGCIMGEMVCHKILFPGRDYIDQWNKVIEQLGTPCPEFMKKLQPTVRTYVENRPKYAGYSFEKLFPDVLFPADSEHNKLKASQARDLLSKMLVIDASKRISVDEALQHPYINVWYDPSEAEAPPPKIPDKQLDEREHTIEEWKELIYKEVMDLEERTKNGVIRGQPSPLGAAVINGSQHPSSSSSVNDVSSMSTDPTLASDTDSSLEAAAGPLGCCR
Structure (SMILES),Ambit profiling (various enzymes [1]),Ambit profiling (various enzymes [2]),Ambit profiling: CDK9 (various enzymes [4]),Ambit profiling: EPHA1 (various enzymes [5]),Ambit profiling: CSNK1E (various enzymes [6]),Ambit profiling: MERTK (various enzymes [7]),Ambit profiling: DCAMKL1 (various enzymes [8]),Ambit profiling: FAK (various enzymes [9]),Ambit profiling: p38-delta (various enzymes [10]),Ambit profiling: SgK110 (various enzymes [11]),Ambit profiling: TNK1 (various enzymes [12]),Ambit profiling: ERK8 (various enzymes [13]),Ambit profiling: EGFR(E746-A750del) (various enzymes [14]),Ambit profiling: AURKB (various enzymes [15]),Ambit profiling: LIMK2 (various enzymes [16]),Ambit profiling: JNK1 (various enzymes [17]),Ambit profiling: MAP4K2 (various enzymes [18]),Ambit profiling: EGFR (various enzymes [19]),Ambit profiling: ICK (various enzymes [20]),Ambit profiling: MST1 (various enzymes [21]),further results
"CN1Cc2nn(C)c(C#N)c2-c2cnc3[nH]cc(c3c2)-c2cn(nc2C(F)(F)F)CCCC1=O [Compound 48, (Z)-31,5-dimethyl-6-oxo-13-(trifluoromethyl)-11H,21H,31H-5-aza-2(3,5)-pyrrolo[2,3-b]pyridina-1(4,1),3(4,3)-dipyrazolacyclononaphane-35-carbonitrile]",100,99,,,,,,,,,,,,,,,,,,,
"COc1c2c(nn1C)CN(C(C)C)C(=O)CCCn1cc(c(C(F)(F)F)n1)-c1c[nH]c3ncc-2cc13 [Compound 50, (Z)-5-isopropyl-35-methoxy-31-methyl-13-(trifluoromethyl)-11H,21H,31H-5-aza-2(3,5)-pyrrolo[2,3-b]pyridina-1(4,1),3(4,3)-dipyrazolacyclononaphan-6-one]",,,47,29,13,3.5,54,5.3,99,99,28,18,5.9,18,64,4.1,44,27,12,2.2,"Ambit profiling: EGFR(L747-E749del, A750P) (various enzymes [3]): 3.1; Ambit profiling: CDK11 (various enzymes [22]): 49"
"CC(C)N1Cc2nn(C)cc2-c2cnc3[nH]cc(c3c2)-c2cn(nc2C(F)(F)F)CCCC1=O [Compound 45, (Z)-5-isopropyl-31-methyl-13-(trifluoromethyl)-11H,21H,31H-5-aza-2(3,5)-pyrrolo[2,3-b]pyridina-1(4,1),3(4,3)-dipyrazolacyclononaphan-6-one]",,,60,26,23,0.6,80,20,100,98,12,6.1,6.4,5.7,100,18,3.9,29,0.95,2.8,"Ambit profiling: EGFR(L747-E749del, A750P) (various enzymes [3]; compound 1 uM): 10; Ambit profiling: CDK11 (various enzymes [22]): 100"
"CN1Cc2nn(C)cc2-c2cnc3[nH]cc(c3c2)-c2cnn(c2)CCCC1=O [Compound 41, (Z)-31,5-dimethyl-11H,21H,31H-5-aza-2(3,5)-pyrrolo[2,3-b]pyridina-1(4,1),3(4,3)-dipyrazolacyclononaphan-6-one]",50,28,,,,,,,,,,,,,,,,,,,
